The text below walks through data of US10550150B2, “Short-chain peptides as Kappa (κ) opioid receptors (KOR) agonist” (CADILA HEALTHCARE LIMITED, priority 2015, dated 2020).

*1 amine or outer side, *2 acyl side, *3 side chain or, on linkers, in order; H or OH if unused. Where a SMILES comes first, the peptide text is derived from it. [ ]: non-standard residue; d: D form. The star is where a group is joined. X26 = O=C(CN1CC2CC(C1)N2*)OCc1ccccc1; X9 = O=C(CN1CC2CC(C1)N2[*:1])[*:2]; X28 = O=C(O)CCN(CCC(=O)O)*; X4 = O=C(O)CN1CC2CC(C1)N2*; Ac6c = NC1(C(=O)O)CCCCC1; X10 = OCCN(CCO)* A value given as a limit tells only on which side of the number the result lay.

Broadly, the EC50 is the concentration giving half of the maximal effect.

The target in one test is T1, Kappa (κ) opioid receptors (KOR) (Homo sapiens, UniProt P41145).
T1 construct: host or cells: unnamed cells grown in Ham's F-12 medium
T1 sequence (P41145 whole entry): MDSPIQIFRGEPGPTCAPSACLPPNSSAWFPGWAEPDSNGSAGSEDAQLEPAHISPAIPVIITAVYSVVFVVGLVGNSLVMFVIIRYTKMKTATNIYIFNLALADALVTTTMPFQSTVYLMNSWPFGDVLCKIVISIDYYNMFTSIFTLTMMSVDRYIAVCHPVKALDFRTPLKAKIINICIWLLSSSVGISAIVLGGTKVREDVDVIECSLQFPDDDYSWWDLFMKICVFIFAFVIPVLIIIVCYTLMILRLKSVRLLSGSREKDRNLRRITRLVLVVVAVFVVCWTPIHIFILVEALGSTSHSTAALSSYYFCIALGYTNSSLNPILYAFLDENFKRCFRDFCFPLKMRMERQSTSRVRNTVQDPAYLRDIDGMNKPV
Kind of test: In vitro KOR agonistic activity, cAMP based functional assay. The following applies: cAMP based functional assay, forskolin stimulated; read-out: In-vitro EC50. In kind it is cell-based. On the procedure:
a) In Vitro (EC50) Determination, Using cAMP Based Functional Assay:
In vitro, KOR agonistic activity of test compounds were assessed using cAMP based functional assay. A 96-well plate was seeded at the density of 30,000 cells/well in 100 μl/well of complete Ham's F-12 medium. After seeding, the plates were incubated overnight at 37° C., 5% CO2, in CO2 Incubator. Overnight medium was discarded and plate washed with 100 μl/well of sterile PBS. Then 90 μl of 0.1 mM IBMX containing 0.5% Fatty acid free BSA in plain HamsF12 was added to each well. This was allowed to incubate for 30 minutes at 37° C., 5% CO2. Forskolin 20 μM in 0.5% Fatty acid free BSA was added to each well and allowed to incubate at room temperature for 5 minutes. Dilution of test compounds was made at 200× in DMSO and then diluted 1:10 times in BSA containing plain HamsF12. Agonist (test compounds, in 10% DMSO) was added to each well (5 μl) and allowed to incubate for 20 minutes at 37° C., 5% CO2. After 20 minutes, media was aspirated from the wells and the wells were washed with 1×PBS. Cell lysis buffer 4× (Arbor Assays, Cat # X074-60 ML) was diluted 1:4 in MilliQ and 90 μl of this buffer was added per well. Cells were allowed to shake at 500 rpm, room temperature for 20 minutes. Cell lysate was collected in 1.5 ml eppendorf tubes and centrifuged at 13.2 k rpm, 4° C. for 15 minutes. 50 μl of the supernatant of cell lysate was then used for cAMP estimation by cAMP direct ELISA kit (Arbor Assays, Cat # K019-H5).
As for `CC(C)CC(NC(=O)C(Cc1ccccc1)NC(=O)C(N)Cc1ccccc1)C(=O)NC(CCCCN)C(=O)N1CC2=C(CN(CC(=O)O)C2)C1` (stereo not shown) [Compound 4], the EC50 came to 0.047 nM.
Regarding `CC(C)CC(NC(=O)C(Cc1ccccc1)NC(=O)C(N)Cc1ccccc1)C(=O)NC(CCCCN)C(=O)N1CC2=C(CN(C(=O)CO)C2)C1` (stereo not shown) [Compound 10], the EC50 worked out at 0.4 nM.
For `CC(C)CC(NC(=O)C(Cc1ccccc1)NC(=O)C(N)Cc1ccccc1)C(=O)NC(CCCCN)C(=O)N1CC2CN(CC(N)=O)CC2C1` (stereo not drawn) [Compound 17, H2N-Phe-Phe-Leu-Lys-Hpp-CONH2], the EC50 worked out at 0.38 nM.
The same measure, in the same setting: the result for `CC(C)CC(NC(=O)C(Cc1ccccc1)NC(=O)C(N)Cc1ccccc1)C(=O)NC(CCCCN)C(=O)N1CC2CC(=O)CC2C1` (stereo not shown) [Compound 23] reads 0.085 nM; that for `CC(C)CC(NC(=O)C(Cc1ccccc1)NC(=O)C(N)Cc1ccccc1)C(=O)NC(CCCCN)C(=O)N1CC2CC(CN)CC2C1` (stereo not shown) [Compound 26], 0.22 nM.
On to `CCOC(=O)C1CC2CN(C(=O)C(CCCCN)NC(=O)C(CC(C)C)NC(=O)C(Cc3ccccc3)NC(=O)C(N)Cc3ccccc3)CC2C1` (stereo not shown) [Compound 27], for which the EC50 amounted to 0.009 nM.
As to `CC(C)CC(NC(=O)C(Cc1ccccc1)NC(=O)C(N)Cc1ccccc1)C(=O)NC(CCCCN)C(=O)N1C2CNCC1C2` (stereo not shown) [Compound 32], the EC50 turned out to be 0.02 nM.
`CC(C)CC(NC(=O)C(Cc1ccccc1)NC(=O)C(N)Cc1ccccc1)C(=O)NC(CCCCN)C(=O)N1C2CC1CN(C)C2` (stereo not shown) [Compound 33]: the EC50 came to 0.009 nM.
In the case of `CC(C)CC(NC(=O)C(Cc1ccccc1)NC(=O)C(N)Cc1ccccc1)C(=O)NC(CCCCN)C(=O)N1C2CC1CN(Cc1ccccc1)C2` (stereo not shown) [Compound 34, N-(6-amino-1-(3-benzyl-3,6-diazabicyclo[3.1.1]heptan-6-yl)-1-oxohexan-2-yl)-2-(2-(2-amino-3-phenylpropanamido)-3-phenylpropanamido)-4-methylpentanamide], the EC50 came to 0.088 nM.
Take `NCCCCC(NC(=O)C1(NC(=O)C(Cc2ccccc2)NC(=O)C(N)Cc2ccccc2)CCCCC1)C(=O)N1C2CC1CN(CC(=O)O)C2` (stereo not shown) [Compound 41] (H-FF[Ac6c]K-X4; configuration not given here): the half-maximal effective concentration (EC50) stood at 0.015 nM.
The same measure, in the same setting: the result for `CC(C)CC(NC(=O)C(Cc1ccccc1)NC(=O)C(N)Cc1ccccc1)C(=O)NC(CCCCN)C(=O)N1C2CC1CN(CC(=O)OCc1ccccc1)C2` (stereo not shown) [Compound 49] reads 0.016 nM; that for `NCCCCC(NC(=O)C1(NC(=O)C(Cc2ccccc2)NC(=O)C(N)Cc2ccccc2)CCCCC1)C(=O)N1C2CC1CN(CC(=O)OCc1ccccc1)C2` (stereo not shown) [Compound 50] (H-FF[Ac6c]K-X26; configuration not given here), 0.008 nM; that for `CC(C)CC(NC(=O)C(Cc1ccccc1)NC(=O)C(N)Cc1ccccc1)C(=O)NC(CCCCN)C(=O)N1CC2CC(C1)N2` (stereo not shown) [Compound 51], 0.012 nM.
For the compound `NCCCCC(NC(=O)C1(NC(=O)C(Cc2ccccc2)NC(=O)C(N)Cc2ccc(O)cc2)CCCCC1)C(=O)N1C2CC1CN(CC(=O)O)C2` (stereo not shown) [Compound 92] (H-YF[Ac6c]K-X4; configuration not given here), the EC50 is 0.018 nM.
Consider `CC(C)CC(NC(=O)C(Cc1ccccc1)NC(=O)C(N)Cc1ccccc1)C(=O)NC(CCCCN)C(=O)N1C2CC1CN(CC(=O)N(CC(=O)O)CC(=O)O)C2` (stereo not shown) [Compound 99], for which the EC50 is 0.016 nM.
Still for that read-out and setting: the result for `CC(C)CC(NC(=O)C(Cc1ccccc1)NC(=O)C(N)Cc1ccccc1)C(=O)NC(CCCCN)C(=O)N1C2CC1CN(CC(=O)N(CCC(=O)O)CCC(=O)O)C2` (stereo not shown) [Compound 100] (H-FFLK[X9]-X28; configuration not given here) reads 0.015 nM.
On the same count and under the same terms, the result for `CC(C)CC(NC(=O)C(Cc1ccccc1)NC(=O)C(N)Cc1ccccc1)C(=O)NC(CCCCN)C(=O)N1C2CC1CN(CC(=O)N(CCO)CCO)C2` (stereo not shown) [Compound 101] (H-FFLK[X9]-X10; configuration not given here) reads 0.012 nM; that for `CC(C)CC(NC(=O)C(Cc1ccccc1)NC(=O)C(N)Cc1ccccc1)C(=O)NC(CCCCN)C(=O)N1C2CC1CN(C(=O)CN(CC(=O)O)CC(=O)O)C2` (stereo not shown) [Compound 102], 0.012 nM.

Staying with this test, now noted: refers to Table-4; read-out: in vitro KOR agonistic activity EC50.
Turning to `CC(C)CC(NC(=O)C(Cc1ccccc1)NC(=O)C(N)Cc1ccccc1)C(=O)NC(CCCCN)C(=O)N1CC2=C(CN(CC(=O)O)C2)C1` (stereo not shown) [Compound 4], the 50% effective concentration (EC50) is less than 0.1 nM.
